Assay results from patent US7829560B2, “1,4-disubstituted naphthalenes as inhibitors of P38 MAP kinase” (Arqule, Inc., priority 2004, dated 2010).

Legend:
[1] = system: TNFα release from THP-1 cells; experiment: Inhibition of TNFα release from LPS-stimulated THP-1 cells, ELISA; type: cell-based; details: Homo sapiens, THP-1, THP-1 cells, read-out: [CELL] THP-1, IC50, TNF ALPHA, ELISA
Summary of the method: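 TNFα released into supernatant after 18 h of 10 μg/ml LPS stimulation was quantified by ELISA and IC50 taken as 50% reduction by non-linear regression. THP-1 cells (10^6/ml; medium with 10% FBS, serum-free or 1% HSA) saw compound for 30 min at 37 °C beforehand; final DMSO ≤0.5%.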

p38α = molecular target: T1, p38α (Homo sapiens, UniProt Q16539); experiment: p38 MAP Kinase assay: inhibition of ATF2 phosphorylation, ELISA; type: biochemical; details: for IC50: ATF2 phosphorylation, read-out: [ENZ] P38 ALPHA, IC50, ELISA
T1 construct: p38 MAP Kinases are recombinant human full-length proteins with an amino-terminal GST fusion; GST (N); purchased Upstate Biotechnology Inc; host or cells: E. coli
T1 sequence (Q16539 whole entry, the tested form may be a part): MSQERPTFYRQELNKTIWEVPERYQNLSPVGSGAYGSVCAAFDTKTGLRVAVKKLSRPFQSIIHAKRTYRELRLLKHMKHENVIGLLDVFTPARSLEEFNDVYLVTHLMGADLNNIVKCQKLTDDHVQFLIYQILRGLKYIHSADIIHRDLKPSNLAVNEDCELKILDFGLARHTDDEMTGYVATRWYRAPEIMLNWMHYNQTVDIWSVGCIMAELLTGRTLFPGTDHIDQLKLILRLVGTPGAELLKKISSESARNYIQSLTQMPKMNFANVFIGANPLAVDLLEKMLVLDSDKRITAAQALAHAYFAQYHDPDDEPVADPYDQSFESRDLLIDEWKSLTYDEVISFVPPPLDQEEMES
Summary of the method: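 In vitro phosphorylation of ATF2 at Thr69 by recombinant human GST-p38 MAP kinase, read by anti-phospho-ATF2 ELISA at 450 nm. Enzyme and compound pre-incubated 15 min at RT, then 30 min reaction at 37 °C with 40 μM ATP and 1.25 μM ATF2; buffer with or without 1% HSA (Method II or I).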

Row | IC50 [1] | IC50 (p38α) | melting point | inhibition at 10 µM (p38α; 10 uM, substrate ATF2, read-out: [ENZ] P38 ALPHA, PCT INH, ELISA (10 uM;ATF2) (Percent)) | SMILES
1 | 0.0903 µM | 0.0063 µM | 117 to 119 °C |  | O=C(Nc1ccc(Oc2ccnc(NCC3CC3)n2)c2ccccc12)c1cc(F)cc(N2CCCCC2)c1 [Compound B384, N-[4-({2-[(cyclopropylmethyl)amino]pyrimidin-4-yl}oxy)-1-naphthyl]-3-fluoro-5-piperidin-1-ylbenzamide]
2 | > 1 µM | 0.109 µM | 175 to 177 °C |  | CC(C)(C)OC(=O)N1CCN(c2nccc(Oc3ccc(NC(=O)c4cc(F)cc(N5CCCCC5)c4)c4ccccc34)n2)CC1 [Compound B397, tert-Butyl-4-[4-({4-[(3-fluoro-5-piperidin-1-ylbenzoyl)amino]-1-naphthyl}oxy)pyrimidin-2-yl]piperazine-1-carboxylate]
3 | 0.0333 µM | 0.0029 µM | 122 to 124 °C |  | O=C(Nc1ccc(Oc2ccnc(NCC3OCCO3)n2)c2ccccc12)c1cc(F)cc(N2CCOCC2)c1 [Compound B369, N-[4-({2-[(1,3-dioxolan-2-ylmethyl)amino]pyrimidin-4-yl}oxy)-1-naphthyl]-3-fluoro-5-morpholin-4-ylbenzamide]
4 | > 1 µM | 0.0559 µM | 131 to 133 °C |  | CC(C)(C)OC(=O)N1CCN(c2nccc(Oc3ccc(NC(=O)c4cc(F)cc(N5CCOCC5)c4)c4ccccc34)n2)CC1 [Compound B340, t-Butyl-4-[4-({4-[(3-fluoro-5-morpholin-4-ylbenzoyl)amino]-1-naphthyl}oxy)pyrimidin-2-yl]piperazine-1-carboxylate]
5 | 0.122 µM | 0.0071 µM | 94 to 95 °C |  | COCC(C)Nc1nccc(Oc2ccc(NC(=O)c3cc(F)cc(N4CCCCC4)c3)c3ccccc23)n1 (stereo not shown) [Compound B392, 3-Fluoro-N-[4-({2-[(2-methoxy-1-methylethyl)amino]pyrimidin-4-yl}oxy)-1-naphthyl]-5-piperidin-1-ylbenzamide]
6 | 0.225 µM | 0.0152 µM | 108 to 110 °C |  | CN(C)C1CCN(c2nccc(Oc3ccc(NC(=O)c4cc(F)cc(N5CCCCC5)c4)c4ccccc34)n2)C1 (stereo not shown) [Compound B420, N-[4-({2-[3-(Dimethylamino)pyrrolidin-1-yl]pyrimidin-4-yl}oxy)-1-naphthyl]-3-fluoro-5-piperidin-1-ylbenzamide]
7 | 0.53 µM | 0.0151 µM | 175 to 176 °C |  | O=C(Nc1ccc(Oc2ccnc(-n3ccnc3)n2)c2ccccc12)c1cc(F)cc(N2CCCCC2)c1 [Compound B379]
8 | 0.0108 µM | 0.0007 µM | 112 to 114 °C |  | CN1CCCC1CCNc1nccc(Oc2ccc(NC(=O)c3cc(F)cc(N4CCCCC4)c3)c3ccccc23)n1 (stereo not shown) [Compound B394, 3-Fluoro-N-{4-[(2-{[2-(1-methylpyrrolidin-2-yl)ethyl]amino}pyrimidin-4-yl)oxy]-1-naphthyl}-5-piperidin-1-ylbenzamide]
9 | > 1 µM | 0.0066 µM | 160 to 162 °C |  | N#CNc1nccc(Oc2ccc(NC(=O)c3cc(F)cc(N4CCCCC4)c3)c3ccccc23)n1 [Compound B380, N-(4-{[2-(Cyanoamino)pyrimidin-4-yl]oxy}-1-naphthyl)-3-fluoro-5-piperidin-1-ylbenzamide]
10 | 0.655 µM | 0.0146 µM | 93 to 95 °C |  | O=C(Nc1ccc(Oc2ccnc(N3CCCC(O)C3)n2)c2ccccc12)c1cc(F)cc(N2CCCCC2)c1 (stereo not shown) [Compound B402, 3-Fluoro-N-(4-{[2-(3-hydroxypiperidin-1-yl)pyrimidin-4-yl]oxy}-1-naphthyl)-5-piperidin-1-ylbenzamide]
11 | 0.185 µM | 0.0069 µM | 157 to 158 °C |  | O=C(Nc1ccc(Oc2ccnc(NC3CC3)n2)c2ccccc12)c1cc(F)cc(N2CCCCC2)c1 [Compound B382, N-(4-{[2-(Cyclopropylamino)pyrimidin-4-yl]oxy}-1-naphthyl)-3-fluoro-5-piperidin-1-ylbenzamide]

Second part, the compound before the results:

Row | SMILES | IC50 [1] | IC50 (p38α) | melting point | inhibition at 10 µM (p38α; 10 uM, substrate ATF2, read-out: [ENZ] P38 ALPHA, PCT INH, ELISA (10 uM;ATF2) (Percent))
12 | O=C(Nc1ccc(Oc2ccnc(N3CCC(O)C3)n2)c2ccccc12)c1cc(F)cc(N2CCOCC2)c1 (stereo not shown) [Compound B339, 3-Fluoro-N-(4-{[2-(3-hydroxypyrrolidin-1-yl)pyrimidin-4-yl]oxy}-1-naphthyl)-5-morpholin-4-ylbenzamide] | 0.347 µM | 0.0391 µM | 137 to 139 °C | 
13 | CCn1c(COc2ccc(NC(=O)c3cc(F)cc(N4CCOCC4)c3)c3ccccc23)n[nH]c1=O [Compound B255, N-[4-(4-Ethyl-5-oxo-4,5-dihydro-1H-[1,2,4]triazol-3-ylmethoxy)-naphthalen-1-yl]-3-fluoro-5-morpholin-4-yl-benzamide] | 1.94 µM | 0.578 µM | 260 °C | 
14 | CCN(C)c1cc(F)cc(C(=O)Nc2ccc(OCCN3CCOCC3)c3ccccc23)c1 [Compound B207, 3-[Ethyl(methyl)amino]-5-fluoro-N-[4-(2-morpholin-4-ylethoxy)-1-naphthyl]benzamide] | > 10 µM | 1.12 µM | 126 to 128 °C | 
15 | O=C(Nc1ccc(OCCN2CCOCC2)c2ccccc12)c1cccc(N2CCCCC2)c1 [Compound B48, N-[4-(2-Morpholin-4-yl-ethoxy)-naphthalen-1-yl]-3-piperidin-1-yl-benzamide] | 7.65 µM | 0.464 µM | 147 to 148 °C | 
16 | CC1CCCN(c2cc(F)cc(C(=O)Nc3ccc(OCCN4CCOCC4)c4ccccc34)c2)C1 (stereo not shown) [Compound B202, 3-Fluoro-5-(3-methylpiperidin-1-yl)-N-[4-(2-morpholin-4-ylethoxy)-1-naphthyl]benzamide] | 9.33 µM | 0.291 µM | 145 to 148 °C | 
17 | O=C(Nc1ccc(OCCN2CCOCC2)c2ccccc12)c1cc(N2CCOCC2)ncn1 [Compound B54, 6-Morpholin-4-yl-pyrimidine-4-carboxylic acid [4-(2-morpholin-4-yl-ethoxy)-naphthalen-1-yl]-amide] | > 10 µM | > 10 µM | 50 to 51 °C | 
18 | O=C(Nc1ccc(Oc2ccnc(N3CCCCC3)n2)c2ccccc12)c1cc(F)cc(N2CCOCC2)c1 [Compound B324, 3-Fluoro-5-morpholin-4-yl-N-{4-[(2-piperidin-1-ylpyrimidin-4-yl)oxy]-1-naphthyl}benzamide] | > 1 µM | 0.019 µM | 190 to 191 °C | 
19 | COc1cccc(C(=O)Nc2ccc(OCCN3CCOCC3)c3ccccc23)c1 [Compound B60, 3-Methoxy-N-[4-(2-morpholin-4-ylethoxy)-1-naphthyl]benzamide] | > 10 µM | 7.81 µM | 105 to 107 °C | 
20 | CCC1CCC(Oc2cc(F)cc(C(=O)Nc3ccc(OCCN4CCOCC4)c4ccccc34)c2)CC1 (stereo not shown) [Compound B194, 3-[(4-Ethylcyclohexyl)oxy]-5-fluoro-N-[4-(2-morpholin-4-ylethoxy)-1-naphthyl]benzamide] | > 10 µM | 9.28 µM | 102 to 105 °C | 
21 | CSc1nccc(Oc2ccc(NC(=O)c3cc(F)cc(N4CCCC4)c3)c3ccccc23)n1 [Compound B264, 3-Fluoro-N-(4-{[2-(methylthio)pyrimidin-4-yl]oxy}-1-naphthyl)-5-pyrrolidin-1-ylbenzamide] | 0.177 µM | 0.189 µM | 180 to 181 °C | 
22 | O=C(Nc1ccc(OCCN2CCOCC2)c2ccccc12)c1cccc(N2CCOCC2)c1 [Compound B169, 3-Morpholin-4-yl-N-[4-(2-morpholin-4-yl-ethoxy)-naphthalen-1-yl]-benzamide] | 1.33 µM | 2.07 µM | 90 to 92 °C | 77.5%
23 | O=C(Nc1ccc(OCc2ccncc2)c2ccccc12)c1cc(F)cc(OC2CCOCC2)c1 [Compound B229, 3-Fluoro-N-[4-(pyridin-4-ylmethoxy)-1-naphthyl]-5-(tetrahydro-2H-pyran-4-yloxy)benzamide] | 5.66 µM | 0.821 µM | 182 to 184 °C | 
24 | O=C(Nc1ccc(Oc2ccnc(-n3ccnc3)n2)c2ccccc12)c1cc(F)cc(N2CCOCC2)c1 [Compound B325, 3-Fluoro-N-(4-{[2-(1H-imidazol-1-yl)pyrimidin-4-yl]oxy}-1-naphthyl)-5-morpholin-4-ylbenzamide] | 0.247 µM | 0.0344 µM | 153 to 154 °C | 
25 | O=C(Nc1ccc(OCCCN2CCNCC2)c2ccccc12)c1cc(F)cc(N2CCCCC2)c1 [Compound B183, 3-Fluoro-N-[4-(3-piperazin-1-yl-propoxy)-naphthalen-1-yl]-5-piperidin-1-yl-benzamide] | > 10 µM | 1.14 µM | 70 to 72 °C | 
26 | O=C(Nc1ccc(OCCCc2cccnc2)c2ccccc12)c1cc(F)cc(N2CCOCC2)c1 [Compound B222, 3-Fluoro-5-morpholin-4-yl-N-[4-(3-pyridin-3-ylpropoxy)-1-naphthyl]benzamide] | 9.38 µM | 0.82 µM | 64 to 66 °C | 
27 | O=C(Nc1ccc(Oc2ccnc(NC3CCCCC3)n2)c2ccccc12)c1cc(F)cc(N2CCOCC2)c1 [Compound B323, N-(4-{[2-(Cyclohexylamino)pyrimidin-4-yl]oxy}-1-naphthyl)-3-fluoro-5-morpholin-4-ylbenzamide] | 0.0361 µM | 0.0119 µM | 135 to 136 °C | 
